# Structures can show the parent of a compound that is named as a salt. Where two headings read alike, the source gives them in different places.
# Legend:
# [1] = tested on: NCI-H292 lung cancer cells; test: FDA drug screening, complete media vs cholesterol-free media without statin (TABLE 1); format: cell-based, human
# [2] = tested on: NCI-H292 lung cancer cells; test: FDA drug screening, complete media vs cholesterol-free media with simvastatin (TABLE 2); format: cell-based, human
# [3] = Complete minus Cholesterol-free, greater than 0 enhanced anti-cancer activity, about 0 neutral, below 0 antagonist
# [4] = NCI-H292 cells, FDA drug library screen, cholesterol-free media without statin
# [5] = NCI-H292 cells, FDA drug library screen, complete media
# [6] = NCI-H292 cells, FDA library drug in cholesterol-free media with simvastatin 0.04 μM
# [7] = NCI-H292 cells, FDA library drug in complete media
# [8] = complete media vs cholesterol-free media + simvastatin (0.04 μM), >0 enhanced anti-cancer activity, about 0 neutral, <0 antagonist
# [9] = NCI-H292 cells, cholesterol-free media without statin, FDA drug library screen
# [10] = NCI-H292 cells, complete media, FDA drug library screen
# [11] = complete vs cholesterol-free media, >0 enhanced anti-cancer activity, about 0 neutral, <0 antagonist
# [12] = NCI-H292 cells, FDA drug library screen, cholesterol-free media with simvastatin 0.04 μM
# [13] = complete media minus cholesterol-free media + simvastatin, >0 enhanced anti-cancer activity, about 0 neutral, <0 antagonist
# [14] = Complete minus Cholesterol-free, >0 enhanced anti-cancer activity, about 0 neutral, <0 antagonist
# [15] = NCI-H292 cells, cholesterol-free media without statin
# [16] = NCI-H292 cells, cholesterol-free media with simvastatin 0.04 μM, FDA drug library screen (TABLE 2)
# [17] = NCI-H292 cells, complete media, FDA drug library screen (TABLE 2)
# [18] = complete media minus cholesterol-free media + simvastatin (0.04 μM), >0 enhanced anti-cancer activity, about 0 neutral, <0 antagonist
# [19] = NCI-H292 cells, cholesterol-free media with simvastatin 0.04 μM, cell growth value in FDA drug screen
# [20] = NCI-H292 cells, complete media, cell growth value in FDA drug screen
# [21] = NCI-H292 cells, drug in cholesterol-free media with simvastatin 0.04 μM
# [22] = NCI-H292 cells, drug in complete media
# [23] = Complete minus Cholesterol-free, greater than 0 enhanced anti-cancer activity, about 0 neutral, below 0 antagonists
# [24] = NCI-H292 cells in cholesterol-free media without statin
# [25] = NCI-H292 cells in complete media
# [26] = complete vs cholesterol-free media, greater than 0 enhanced anti-cancer activity, about 0 neutral, below 0 antagonists
compound,measurement,setting,value
CO[C@H]1C[C@@H]2CC[C@@H](C)[C@@](O)(O2)C(=O)C(=O)N2CCCC[C@H]2C(=O)O[C@H]([C@H](C)C[C@@H]2CC[C@@H](O)[C@H](OC)C2)CC(=O)[C@H](C)/C=C(\C)[C@@H](O)[C@@H](OC)C(=O)[C@H](C)C[C@H](C)/C=C/C=C/C=C/1C [Rapamycin],Difference,[1]; [3],−0.13
same,Cholesterol-free,[1]; [4],0.3515
same,Complete,[1]; [5],0.2187
same,Cholesterol-free media + simvastatin (0.04 μM),[2]; [6],1.159
same,Complete Media,[2]; [7],0.8704
same,Difference,[2]; [8],−0.29
C[S+](CC[C@H](N)C(=O)O)C[C@H]1O[C@@H](n2cnc3c(N)ncnc32)[C@H](O)[C@@H]1O.Cc1ccc(S(=O)(=O)[O-])cc1 (stereo partly drawn) [S-Adenosyl-L-methionine (tosylate)],Cholesterol-free,[1]; [9],0.8583
same,Complete,[1]; [10],1.043
same,Difference,[1]; [11],0.19
same,Cholesterol-free media + simvastatin (0.04 μM),[2]; [12],1.239
same,Complete Media,[2]; [5],1.842
same,Difference,[2]; [13],0.60
COc1cc(CNC(=O)CCCC/C=C/C(C)C)ccc1O [Capsaicin],Difference,[1]; [14],−0.28
same,Cholesterol-free,[1]; [15],1.197
same,Complete,"[1]; NCI-H292 cells, complete media",0.9142
same,Cholesterol-free media + simvastatin (0.04 μM),[2]; [16],1.403
same,Complete Media,[2]; [17],1.38
same,Difference,[2]; [18],−0.02
CC(C(=O)O)c1ccc2c(c1)[nH]c1ccc(Cl)cc12 (stereo not drawn) [Carprofen],Difference,[1]; [3],−0.18
same,Cholesterol-free,[1]; [4],1.071
same,Complete,[1]; [5],0.886
same,Cholesterol-free media + simvastatin (0.04 μM),[2]; [19],0.8634
same,Complete Media,[2]; [20],0.98
same,Difference,[2]; [13],0.12
Cc1nc2n(c(=O)c1CCN1CCC(c3noc4cc(F)ccc34)CC1)CCCC2O (stereo not drawn) [Paliperidone],Difference,[1]; [3],−0.18
same,Cholesterol-free,[1]; [4],0.8391
same,Complete,[1]; [5],0.6569
same,Cholesterol-free media + simvastatin (0.04 μM),[2]; [6],1.086
same,Complete Media,[2]; [7],0.8023
same,Difference,[2]; [8],−0.28
CCCCC[C@H](O)CC[C@@H]1[C@H]2Cc3cccc(OCC(=O)O)c3C[C@H]2C[C@H]1O [Treprostinil (sodium)],Difference,[1]; [14],−0.02
same,Cholesterol-free,[1]; [9],1.017
same,Complete,[1]; [10],0.9998
same,Cholesterol-free media + simvastatin (0.04 μM),[2]; [21],1.119
same,Complete Media,[2]; [22],0.898
same,Difference,[2]; [8],−0.22
CO/N=C(\C(=O)N[C@@H]1C(=O)N2C(C(=O)[O-])=C(C[N+]3(C)CCCC3)CS[C@H]12)c1csc(N)n1 [Cefepime (Dihydrochloride Monohydrate)],Difference,[1]; [23],−0.52
same,Cholesterol-free,[1]; [24],1.209
same,Complete,[1]; [25],0.6874
same,Cholesterol-free media + simvastatin (0.04 μM),[2]; [12],1.15
same,Complete Media,[2]; [5],1.537
same,Difference,[2]; [13],0.39
NC(CO)(CO)CO [Trometamol],Cholesterol-free,[1]; [15],1.471
same,Complete,"[1]; NCI-H292 cells, complete media",1.133
same,Difference,[1]; [26],−0.34
same,Cholesterol-free media + simvastatin (0.04 μM),[2]; [12],1.116
same,Complete Media,[2]; [5],0.9694
same,Difference,[2]; [8],−0.15
CCCCOc1ccc(C(=O)CCN2CCCCC2)cc1 [Dyclonine (hydrochloride)],Cholesterol-free,[1]; [15],1.119
same,Complete,"[1]; NCI-H292 cells, complete media",0.7824
same,Difference,[1]; [26],−0.34
same,Cholesterol-free media + simvastatin (0.04 μM),[2]; [19],0.8623
same,Complete Media,[2]; [20],0.9661
same,Difference,[2]; [13],0.10
Clemastine (fumarate),Difference,[1]; [23],−0.61
same,Cholesterol-free,[1]; [24],1.716
same,Cholesterol-free media + simvastatin (0.04 μM),[2]; [19],0.8829
same,Difference,[2]; [13],0.12
COc1cc2ncnc(Nc3ccc(F)c(Cl)c3)c2cc1OCCCN1CCOCC1 [Gefitinib (hydrochloride)],Cholesterol-free,[1]; [9],0.6497
same,Complete,[1]; [10],0.8718
same,Difference,[1]; [11],0.22
same,Cholesterol-free media + simvastatin (0.04 μM),[2]; [12],0.9234
same,Complete Media,[2]; [5],0.8455
same,Difference,[2]; [8],−0.08
N[C@H](CS)C(=O)O [D-Cysteine],Cholesterol-free,[1]; [15],1.1
same,Complete,"[1]; NCI-H292 cells, complete media",0.7316
same,Difference,[1]; [26],−0.37
same,Cholesterol-free media + simvastatin (0.04 μM),[2]; [21],1.145
same,Complete Media,[2]; [22],0.9078
same,Difference,[2]; [8],−0.24
O=C(O)/C=C/c1ccc(Cn2ccnc2)cc1 [Ozagrel (sodium)],Difference,[1]; [14],−0.07
same,Cholesterol-free,[1]; [9],1.134
same,Complete,[1]; [10],1.068
same,Cholesterol-free media + simvastatin (0.04 μM),[2]; [16],1.082
same,Complete Media,[2]; [17],1.026
same,Difference,[2]; [18],−0.06
C=C[C@H]1C[N@@]2CC[C@H]1C[C@H]2[C@H](O)c1ccnc2ccc(OC)cc12 [Quinine (hydrochloride dihydrate)],Difference,[1]; [14],0.03
same,Cholesterol-free media + simvastatin (0.04 μM),[2]; [12],1.208
same,Difference,[2]; [8],−0.15
N[C@@H](Cc1cc(I)c(Oc2ccc(O)c(I)c2)c(I)c1)C(=O)O [Liothyronine (sodium)],Cholesterol-free,[1]; [15],1.224
same,Complete,"[1]; NCI-H292 cells, complete media",0.9078
same,Difference,[1]; [26],−0.32
same,Cholesterol-free media + simvastatin (0.04 μM),[2]; [21],1.302
same,Complete Media,[2]; [22],1.113
same,Difference,[2]; [8],−0.19
CN(C)C(=O)Oc1cccc([N+](C)(C)C)c1.[Br-] [Neostigmine (Bromide)],Cholesterol-free,[1],1.008
same,Complete,[1],0.8252
same,Difference,[1],−0.18
same,Cholesterol-free media + simvastatin (0.04 μM),[2],0.9188
same,Complete Media,[2],1.066
same,Difference,[2],0.15
c1ccc2[nH]c(-c3cscn3)nc2c1 [Thiabendazole],Cholesterol-free,[1]; [9],0.802
same,Complete,[1]; [10],1.484
same,Difference,[1]; [11],0.68
same,Cholesterol-free media + simvastatin (0.04 μM),[2]; [12],0.9537
same,Complete Media,[2]; [5],1.187
same,Difference,[2]; [13],0.23
COc1cc2ncnc(Nc3ccc(F)c(Cl)c3)c2cc1NC(=O)/C=C/CN1CCCCC1 [Dacomitinib],Difference,[1]; [3],−0.12
same,Cholesterol-free,[1]; [4],0.3597
same,Complete,[1]; [5],0.2371
same,Cholesterol-free media + simvastatin (0.04 μM),[2]; [19],0.3301
same,Complete Media,[2]; [20],0.437
same,Difference,[2]; [13],0.11
CC(C)Cn1cnc2c(N)nc3ccccc3c21 [Imiquimod (hydrochloride)],Cholesterol-free,[1],0.8815
same,Complete,[1],1.16
same,Difference,[1],0.28
same,Cholesterol-free media + simvastatin (0.04 μM),[2],1.323
same,Complete Media,[2],1.16
same,Difference,[2],−0.16
CCc1ccc(CCOc2ccc(CC3SC(=O)NC3=O)cc2)nc1 (stereo not drawn) [Pioglitazone],Cholesterol-free,[1]; [9],0.8939
same,Difference,[1]; [11],0.27
same,Cholesterol-free media + simvastatin (0.04 μM),[2]; [6],2.095
same,Complete Media,[2]; [7],1.521
same,Difference,[2]; [8],−0.57
CCCNC(C)C(=O)Nc1c(C)csc1C(=O)OC (stereo not drawn) [Articaine (hydrochloride)],Cholesterol-free,[1]; [9],1.045
same,Complete,[1]; [10],1.285
same,Difference,[1]; [11],0.24
same,Cholesterol-free media + simvastatin (0.04 μM),[2]; [12],0.9336
same,Complete Media,[2]; [5],0.8247
same,Difference,[2]; [8],−0.11
Oxeladin (citrate),Difference,"[1]; Complete minus Cholesterol-free, […]",−0.55
same,Cholesterol-free,[1]; [24],1.475
same,Complete,[1]; [25],0.921
same,Cholesterol-free media + simvastatin (0.04 μM),[2]; [12],0.7029
same,Complete Media,[2]; [5],1.466
same,Difference,"[2]; complete media minus cholesterol-free media + simvastatin, […]",0.76
Cn1cc(C(=O)[C@@H]2CCc3nc[nH]c3C2)c2ccccc21 [Ramosetron (Hydrochloride)],Difference,[1]; [14],0.03
same,Cholesterol-free,[1]; [9],0.9223
same,Complete,[1]; [10],0.9545
same,Cholesterol-free media + simvastatin (0.04 μM),[2]; [12],1.25
same,Complete Media,[2]; [5],1.513
same,Difference,[2]; [13],0.26

# Reference: patent US20250144067A1, “PERSONALIZED STARVATION THERAPY FOR CANCER” (Faeth Therapeutics, Inc., priority 2021, published 2025)
